From paper PMC6956804, “Potent antibacterial activity of MSI-1 derived from the magainin 2 peptide against drug-resistant bacteria” (Theranostics, 2020)
In brackets after ≈: the same amount, converted by molar mass. Peptide text beside a SMILES is read from it.

Legend:
[1] = tested on: MRSA, Methicillin-resistant clinical isolates; assay type: cell-based, Staphylococcus aureus
Description: (§1) Bacterial strains were purchased from the American Type Culture Collection (ATCC). All clinical strains were isolated from human clinical specimens by the Medical Laboratory Center of Zhongda Hospital (Nanjing, Jiangsu, China). Ndm-1, tem-1, ctx-m-1, shv-1 -carrying bacteria were constructed as previously described. The recombinant bacteria carrying drug-resistant genes were prepared in LB nutrient and induced by IPTG (1 mM) for 4 h before text. Other bacterial strains were respectively prepared in MHB and Columbia Blood Agar Base.
(§2) A standard micro-broth serial dilution assay was used to measure MIC of peptides. MIC was obtained by a microplate reader at 600 nm. MBC was determined as previously described.

Helicobacterpylori SS1 = assay type: cell-based; conditions: Helicobacterpylori SS1
Description: as §1, §2

[2] = tested on: P. aeruginosa, Penicillin-, Imipenem- and Ceftazidime- resistant clinical isolates; assay type: cell-based
Description: as §1, §2

[3] = tested on: K. pneumonia, Penicillin-, Imipenem- and Ceftazidime- resistant clinical isolates; assay type: cell-based
Description: as §1, §2

[4] = tested on: S. epidermidis, Amoxicillin-, Cephalexin- and Levofloxacin- resistant clinical isolates; assay type: cell-based
Description: as §1, §2

[5] = tested on: S. pyogenes, Penicillin-, Erythromycin- and Levofloxacin- resistant clinical isolates; assay type: cell-based
Description: as §1, §2

[6] = tested on: E. coli BL21(DE3)-NDM-1 (ndm-1-carrying recombinant E. coli); assay type: cell-based
Description: as §1, §2

[7] = tested on: S. pneumoniae, Amoxicillin-, Cephalexin- and Levofloxacin- resistant clinical isolates; assay type: cell-based
Description: as §1, §2

[8] = tested on: E. coli, Penicillin-, Imipenem- and Ceftazidime- resistant clinical isolates; assay type: cell-based
Description: as §1, §2

[9] = tested on: S. aureus, Amoxicillin-, Cephalexin- and Levofloxacin- resistant clinical isolates; assay type: cell-based
Description: as §1, §2

murine spleen cells = test: Cytotoxicity, MTT; assay type: cell-based; conditions: 48 h
Description: The cytotoxicity of peptides towards murine spleen cells (obtained from healthy murine with aseptic technique) and other eukaryotic cells (HaCaT, GES-1, human L02, B16F10, A549, H460) were determined by routine MTT method. Cells were incubated with serially diluted peptides (final concentrations: 1.563, 3.125, 6.25, 12.5, 25, 50, 100 and 200 μM) for 48 h.

C57BL/6 mice = test: Acute toxicity in mice; assay type: in vivo; conditions: intraperitoneal
Description: C57BL/6 mice (n=6/group) were intraperitoneally injected with MSI-1 (0, 10, 20, 40, 80 and 100 mg/kg/body weight, respectively). Animals were inspected for adverse effects for 30 min, and survival was monitored for 12 h thereafter. The toxicity severity was classified as Malik U et al previously described.

S. pneumoniae ATCC 49619 = test: microbe, parasite or virus in culture; assay type: cell-based
Description: as §1, §2

Shigella flexneri = test: microbe, parasite or virus in culture; assay type: cell-based
Description: as §1, §2

E. coli ATCC25922 = test: microbe, parasite or virus in culture; assay type: cell-based; conditions: micro-broth serial dilution, 600 nm
Description: as §1, §2

E. cloacae S1 (AmpC (+)) = test: microbe, parasite or virus in culture; assay type: cell-based; conditions: E. cloacae S1 (AmpC (+)), clinical strain
Description: as §1, §2

E. faecium = test: microbe, parasite or virus in culture; assay type: cell-based
Description: as §1, §2

[10] = tested on: P. aeruginosa T1 (ESBLs (+)); test: microbe, parasite or virus in culture; assay type: cell-based; conditions: P. aeruginosa T1 (ESBLs (+)), clinical strain
Description: as §1, §2

E. coli A2 (ESBLs (+)) = test: microbe, parasite or virus in culture; assay type: cell-based; conditions: E. coli A2 (ESBLs (+)), clinical strain
Description: as §1, §2

S. epidermidis ATCC35984 = test: microbe, parasite or virus in culture; assay type: cell-based
Description: as §1, §2

[11] = tested on: P. aeruginosa T6 (ESBLs (+)); test: microbe, parasite or virus in culture; assay type: cell-based; conditions: P. aeruginosa T6 (ESBLs (+)), clinical strain
Description: as §1, §2

E. coli A5 (ESBLs (+)) = test: microbe, parasite or virus in culture; assay type: cell-based; conditions: E. coli A5 (ESBLs (+)), clinical strain
Description: as §1, §2

[12] = tested on: P. aeruginosa T8 (ESBLs (+)); test: microbe, parasite or virus in culture; assay type: cell-based; conditions: P. aeruginosa T8 (ESBLs (+)), clinical strain
Description: as §1, §2

P. aeruginosa ATCC27853 = test: microbe, parasite or virus in culture; assay type: cell-based
Description: as §1, §2

E. cloacae S3 (AmpC (+)) = test: microbe, parasite or virus in culture; assay type: cell-based; conditions: E. cloacae S3 (AmpC (+)), clinical strain
Description: as §1, §2

E. coli A9 (ESBLs (+)) = test: microbe, parasite or virus in culture; assay type: cell-based; conditions: E. coli A9 (ESBLs (+)), clinical strain
Description: as §1, §2

S. aureus ATCC25923 = test: microbe, parasite or virus in culture; assay type: cell-based
Description: as §1, §2

E. faecalis = test: microbe, parasite or virus in culture; assay type: cell-based
Description: as §1, §2

PRSP P105 = test: microbe, parasite or virus in culture; assay type: cell-based, Streptococcus pneumoniae; conditions: PRSP P105, clinical strain
Description: as §1, §2

PISP F22 = test: microbe, parasite or virus in culture; assay type: cell-based, Streptococcus pneumoniae; conditions: PISP F22, clinical strain
Description: as §1, §2

PRSP P112 = test: microbe, parasite or virus in culture; assay type: cell-based, Streptococcus pneumoniae; conditions: PRSP P112, clinical strain
Description: as §1, §2

PISP F34 = test: microbe, parasite or virus in culture; assay type: cell-based, Streptococcus pneumoniae; conditions: PISP F34, clinical strain
Description: as §1, §2

MRSE N109 = test: microbe, parasite or virus in culture; assay type: cell-based, Staphylococcus epidermidis; conditions: MRSE N109, clinical strain
Description: as §1, §2

MRSE N104 = test: microbe, parasite or virus in culture; assay type: cell-based, Staphylococcus epidermidis; conditions: MRSE N104, clinical strain
Description: as §1, §2

MSSE E3 = test: microbe, parasite or virus in culture; assay type: cell-based, Staphylococcus epidermidis; conditions: MSSE E3, clinical strain
Description: as §1, §2

MSSE E8 = test: microbe, parasite or virus in culture; assay type: cell-based, Staphylococcus epidermidis; conditions: MSSE E8, clinical strain
Description: as §1, §2

G- and G+ bacteria = test: Antimicrobial activity, summary over the strains; assay type: cell-based; conditions: both G- and G+ bacteria, summary of Table 1
Description: as §2

[13] = tested on: K. peneumoniae B6 (ESBLs (+)); test: organism not typed; assay type: cell-based; conditions: K. peneumoniae B6 (ESBLs (+)), clinical strain
Description: as §1, §2

K. peneumoniae ATCC4352 = test: organism not typed; assay type: cell-based
Description: as §1, §2

[14] = tested on: K. peneumoniae B9 (ESBLs (+)); test: organism not typed; assay type: cell-based; conditions: K. peneumoniae B9 (ESBLs (+)), clinical strain
Description: as §1, §2

[15] = tested on: K. peneumoniae B4 (ESBLs (+)); test: organism not typed; assay type: cell-based; conditions: K. peneumoniae B4 (ESBLs (+)), clinical strain
Description: as §1, §2

MRSA M101 = test: microbe, parasite or virus in culture; assay type: cell-based, Staphylococcus aureus; conditions: MRSA M101, clinical strain
Description: as §1, §2

MSSA D1 = test: microbe, parasite or virus in culture; assay type: cell-based, Staphylococcus aureus; conditions: MSSA D1, clinical strain
Description: as §1, §2

MSSA D4 = test: microbe, parasite or virus in culture; assay type: cell-based, Staphylococcus aureus; conditions: MSSA D4, clinical strain
Description: as §1, §2

MRSA M108 = test: microbe, parasite or virus in culture; assay type: cell-based, Staphylococcus aureus; conditions: MRSA M108, clinical strain
Description: as §1, §2

CC[C@H](C)[C@H](NC(=O)CN)C(=O)NCC(=O)N[C@@H](C)C(=O)N[C@H](C(=O)N[C@@H](CC(C)C)C(=O)N[C@@H](CCCCN)C(=O)N[C@H](C(=O)N[C@@H](CC(C)C)C(=O)N[C@H](C(=O)N[C@H](C(=O)NCC(=O)N[C@@H](CC(C)C)C(=O)N1CCC[C@H]1C(=O)N[C@@H](C)C(=O)N[C@@H](CC(C)C)C(=O)N[C@H](C(=O)N[C@@H](CO)C(=O)N[C@@H](Cc1c[nH]c2ccccc12)C(=O)N[C@H](C(=O)N[C@@H](CCCCN)C(=O)N[C@@H](CCCNC(=N)N)C(=O)N[C@@H](CCCCN)C(=O)N[C@@H](CCCNC(=N)N)C(=O)N[C@@H](CCC(N)=O)C(=O)N[C@@H](CCC(N)=O)C(N)=O)[C@@H](C)CC)[C@@H](C)CC)[C@@H](C)O)[C@@H](C)O)C(C)C)C(C)C [Melittin]
MBC [1]: 8 µg/mL (≈ 2.81 µM)
MIC [1]: 4 µg/mL (≈ 1.41 µM)
MBC (Helicobacterpylori SS1): 16 µg/mL (≈ 5.62 µM)
MIC (Helicobacterpylori SS1): 8 µg/mL (≈ 2.81 µM)
MBC [2]: 8 µg/mL (≈ 2.81 µM)
MIC [2]: 4 µg/mL (≈ 1.41 µM)
MBC [3]: 16 µg/mL (≈ 5.62 µM)
MIC [3]: 8 µg/mL (≈ 2.81 µM)
MBC [4]: 16 µg/mL (≈ 5.62 µM)
MIC [4]: 4 µg/mL (≈ 1.41 µM)
MBC [5]: 16 µg/mL (≈ 5.62 µM)
MIC [5]: 8 µg/mL (≈ 2.81 µM)
MBC [6]: 8 µg/mL (≈ 2.81 µM)
MIC [6]: 4 µg/mL (≈ 1.41 µM)
MBC [7]: 16 µg/mL (≈ 5.62 µM)
MIC [7]: 8 µg/mL (≈ 2.81 µM)
MBC [8]: 8 µg/mL (≈ 2.81 µM)
MIC [8]: 4 µg/mL (≈ 1.41 µM)
MBC [9]: 32 µg/mL (≈ 11.2 µM)
MIC [9]: 8 µg/mL (≈ 2.81 µM)

CC[C@H](C)[C@H](NC(=O)CN)C(=O)N[C@@H](Cc1c[nH]c2ccccc12)C(=O)N[C@@H](CCCCN)C(=O)N[C@@H](Cc1ccccc1)C(=O)N[C@@H](CC(C)C)C(=O)N[C@@H](CCCCN)C(=O)N[C@@H](CCCCN)C(=O)N[C@@H](C)C(=O)N[C@@H](CCCCN)C(=O)N[C@@H](CCCCN)C(=O)N[C@@H](Cc1ccccc1)C(=O)N[C@@H](Cc1c[nH]c2ccccc12)C(N)=O [MSI-3] (H-GIWKFLKKAKKFW-NH2)
effect on the survival of mouse spleen cells compared with the parent peptide (murine spleen cells): significantly higher
deaths (C57BL/6 mice; 100 mg/kg): some of the mice in the MSI-3-treated group died
adverse effects at approximately 5 min post injection (C57BL/6 mice; dose of peptide above 40 mg/kg, n=6/group): displayed narrowing of the eyes, one mouse was crouching and cuddling, and the other mouse showed convulsions

CC[C@H](C)[C@H](NC(=O)[C@@H](N)Cc1c[nH]c2ccccc12)C(=O)N[C@@H](CCCNC(=N)N)C(=O)N[C@@H](CCCCN)C(=O)N[C@@H](Cc1ccccc1)C(=O)N[C@@H](CC(C)C)C(=O)N[C@@H](CCCCN)C(=O)N[C@@H](CCCNC(=N)N)C(=O)N[C@H](C(=O)N[C@@H](CCCCN)C(=O)N[C@@H](CCCCN)C(=O)N[C@@H](Cc1ccccc1)C(=O)NCC(N)=O)C(C)C [MSI-4] (H-WIRKFLKRVKKFG-NH2)
MIC (S. pneumoniae ATCC 49619): 16 µg/mL (≈ 9.38 µM)
MIC (Shigella flexneri): 16 µg/mL (≈ 9.38 µM)
MIC (E. coli ATCC25922): 16 µg/mL (≈ 9.38 µM)
MIC (E. cloacae S1 (AmpC (+))): 16 µg/mL (≈ 9.38 µM)
MIC (E. faecium): 16 µg/mL (≈ 9.38 µM)
MIC [10]: 16 µg/mL (≈ 9.38 µM)
MIC (E. coli A2 (ESBLs (+))): 32 µg/mL (≈ 18.8 µM)
MIC (S. epidermidis ATCC35984): 16 µg/mL (≈ 9.38 µM)
MIC [11]: 32 µg/mL (≈ 18.8 µM)
MIC (E. coli A5 (ESBLs (+))): 16 µg/mL (≈ 9.38 µM)
MIC [12]: 64 µg/mL (≈ 37.5 µM)
MIC (P. aeruginosa ATCC27853): 32 µg/mL (≈ 18.8 µM)
MIC (E. cloacae S3 (AmpC (+))): 32 µg/mL (≈ 18.8 µM)
MIC (E. coli A9 (ESBLs (+))): 32 µg/mL (≈ 18.8 µM)
MIC (S. aureus ATCC25923): 16 µg/mL (≈ 9.38 µM)
MIC (E. faecalis): 32 µg/mL (≈ 18.8 µM)
MIC (PRSP P105): 64 µg/mL (≈ 37.5 µM)
MIC (PISP F22): 32 µg/mL (≈ 18.8 µM)
MIC (PRSP P112): 32 µg/mL (≈ 18.8 µM)
MIC (PISP F34): 16 µg/mL (≈ 9.38 µM)
MIC (MRSE N109): 32 µg/mL (≈ 18.8 µM)
MIC (MRSE N104): 32 µg/mL (≈ 18.8 µM)
MIC (MSSE E3): 16 µg/mL (≈ 9.38 µM)
MIC (MSSE E8): 16 µg/mL (≈ 9.38 µM)
MIC (range over strains) (G- and G+ bacteria): 16 to 64 µg/mL
MIC [13]: 32 µg/mL (≈ 18.8 µM)
MIC (K. peneumoniae ATCC4352): 32 µg/mL (≈ 18.8 µM)
MIC [14]: 16 µg/mL (≈ 9.38 µM)
MIC [15]: 64 µg/mL (≈ 37.5 µM)
MIC (MRSA M101): 32 µg/mL (≈ 18.8 µM)
MIC (MSSA D1): 32 µg/mL (≈ 18.8 µM)
MIC (MSSA D4): 16 µg/mL (≈ 9.38 µM)
MIC (MRSA M108): 64 µg/mL (≈ 37.5 µM)
